In BindingDB's records for doi:10.1016/j.bmc.2008.09.053 (Chiba University, 2008) one finds IC50 data, which are given here for two molecules.

Structures are written as SMILES.

The assay deals with T1, Zinc finger protein GLI1 (Homo sapiens, UniProt P08151).
T1 sequence (P08151 whole entry): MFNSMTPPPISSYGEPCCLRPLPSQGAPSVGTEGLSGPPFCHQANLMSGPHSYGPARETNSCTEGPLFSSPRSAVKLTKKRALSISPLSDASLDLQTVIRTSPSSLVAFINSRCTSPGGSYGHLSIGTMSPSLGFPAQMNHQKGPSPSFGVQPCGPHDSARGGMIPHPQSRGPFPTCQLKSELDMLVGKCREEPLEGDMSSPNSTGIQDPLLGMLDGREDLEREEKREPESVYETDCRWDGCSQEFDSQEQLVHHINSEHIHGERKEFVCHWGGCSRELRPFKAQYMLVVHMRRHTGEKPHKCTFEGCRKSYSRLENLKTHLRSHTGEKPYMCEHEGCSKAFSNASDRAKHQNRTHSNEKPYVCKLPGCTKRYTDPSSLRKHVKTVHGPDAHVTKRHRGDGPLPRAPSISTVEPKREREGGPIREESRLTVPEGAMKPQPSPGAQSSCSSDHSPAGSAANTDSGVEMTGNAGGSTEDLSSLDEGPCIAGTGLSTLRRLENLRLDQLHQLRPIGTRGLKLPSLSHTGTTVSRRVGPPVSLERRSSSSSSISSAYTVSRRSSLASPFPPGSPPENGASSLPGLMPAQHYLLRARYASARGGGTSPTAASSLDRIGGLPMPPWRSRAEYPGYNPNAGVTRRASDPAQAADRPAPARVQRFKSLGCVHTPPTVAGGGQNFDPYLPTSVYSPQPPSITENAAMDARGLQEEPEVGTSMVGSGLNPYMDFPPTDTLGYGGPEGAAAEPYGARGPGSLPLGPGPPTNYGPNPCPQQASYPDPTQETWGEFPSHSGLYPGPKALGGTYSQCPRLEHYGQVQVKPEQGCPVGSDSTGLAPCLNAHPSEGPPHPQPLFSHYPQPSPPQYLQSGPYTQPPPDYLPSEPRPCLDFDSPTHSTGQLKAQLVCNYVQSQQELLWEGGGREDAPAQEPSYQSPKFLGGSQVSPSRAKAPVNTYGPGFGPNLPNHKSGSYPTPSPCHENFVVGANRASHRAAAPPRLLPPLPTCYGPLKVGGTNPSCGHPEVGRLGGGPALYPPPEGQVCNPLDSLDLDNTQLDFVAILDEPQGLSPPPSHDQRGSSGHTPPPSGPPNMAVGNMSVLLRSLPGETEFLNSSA
In words: Inhibition of GLI1-mediated transcriptional activity in human HaCaT cells by luciferase based reporter gene assay.

As for `C=C(C)[C@@H]1CC[C@]2(C(=O)O)CC[C@]3(C)[C@H](CC[C@@H]4[C@@]5(C)[C@@H](C(=O)O)[C@H](O)C(C)(C)[C@@H]5CC[C@]43C)[C@@H]12`, the half-maximal inhibitory concentration (IC50) was more than 200 µM.
Next, `C=C(C)[C@@H]1CC[C@]2(C(=O)O)CC[C@]3(C)[C@H](CC[C@@H]4[C@@]5(C)[C@H](CO)[C@@H](O)C(C)(C)[C@@H]5CC[C@]43C)[C@@H]12` [ceanothanolic acid]: 133 µM.
